Results reported in PMC7352759, “S(+)-(2E)-N-(2-Hydroxypropyl)-3-Phenylprop-2-Enamide (KM-568): A Novel Cinnamamide Derivative with Anticonvulsant Activity in Animal Models of Seizures and Epilepsy” (International Journal of Molecular Sciences, 2020).

Legend:
[1] = tested on: LTG-resistant amygdala kindled Sprague–Dawley rats; test: Lamotrigine (LTG) resistant amygdala kindled seizure model in rats; format: in vivo; conditions: 0.25 h
Description: Anesthetized male Sprague–Dawley rats (250–300 g) were surgically implanted with an electrode into the left amygdala. After a one-week recovery period, kindling was initiated. A suprathreshold stimulus (200 µA) was delivered daily until all animals display stage 4–5 seizures. Lamotrigine at 5 mg/kg i.p. was also administered daily during kindling acquisition. One week after all animals were kindled, the animals received a challenge dose of lamotrigine (30 mg/kg, i.p.) to confirm LTG-resistance. On the 4th day, compound KM-568 was administered i.p. at the doses 20, 40, and 80 mg/kg. Fifteen minutes after administration, rats were challenged with the kindling stimulus. Results were provided as seizure score (according to Racine scale, protection defined as less than 3) and after discharge duration (in sec).

rats = test: Pilocarpine-induced status epilepticus model; format: in vivo
Description: Compound KM-568 was tested in rats at the doses in the range 200–400 mg/kg i.p. in a pilocarpine-induced status epilepticus model. After administration of pilocarpine, at the time point when a convulsive effect of at least level 3 in the Racine scale was noted (time 0 h) and 0.5 h afterwards (time 0.5 h), KM-568 was administered intraperitoneally at a certain dose.
Pilocarpine was administered intraperitoneally into rats at the dose of 50 mg/kg. Each animal was being observed. The time point when the convulsive effect at the level of at least 3 in the Racine scale was noted (time 0 h), and, 0.5 h (time 0.5 h) afterwards, KM-568 was administered.

[2] = Ames microplate format (MPF) assay, TA1535; conditions: Salmonella typhimurium, Salmonella typhimurium TA1535
Excerpt: (§1) The Ames microplate format (MPF) mutagenicity assay (Xenometrix, Allschwil, Switzerland) was used to test KM-568 mutagenicity. Growth, exposure, and indicator media, positive control chemicals, and four Salmonella typhimurium strains TA98, TA100, TA1535 and TA1537 were included in the kit. TA100 and TA1535 strains detect base substitution mutations, whereas TA98 and TA1537 indicate frameshift mutations. The strains of bacteria included in a kit are in compliance with the Organization for Economic Cooperation and Development (OECD) 471 Guideline for Testing of Chemicals.
The assay is a liquid microplate modification of the traditional Salmonella test. During the procedure, bacteria are exposed to different concentrations of a test compound for 90 min in a medium containing sufficient histidine to support cell divisions. Then, the cultures are diluted in a pH indicator medium lacking histidine and aliquoted into 48 wells of a 384-well plate. Within 2 days, bacteria that have undergone reversion to amino acid prototrophy will form colonies. Products of bacteria metabolism reduce pH of the medium, changing the color of wells from purple to yellow.
The test procedure provided by Xenometrix and described in detail elsewhere was followed. Bacterial strains were grown overnight (14–16 h) in exposure medium in a shaker incubator and then exposed to KM-568 in 24-well plates for 90 min at 37 °C with agitation. Final KM-568 concentrations in the assay were 0.1, 0.2, and 0.5 mM. After preincubation, the cultures were diluted in the indicator medium and the contents of each 24-well culture were transferred to 48 wells on a 384-well plate and incubated further for 48 h at 37 °C without agitation. After the exposure, the number of wells containing bacteria was scored for yellow wells. […] Pure DMSO was used as a negative control. All doses were performed in triplicate.
The fold increase of revertants relative to the solvent control was determined by dividing the mean number of positive wells at each dose by the solvent control at baseline. The solvent control at baseline was calculated as the mean number of positive wells in the solvent control plus one standard deviation (SD). When an increase of more than twofold relative to the baseline at more than one dose with a dose–response was observed, the sample was classified as positive, whereas when no response > 2 times the baseline and no dose–response was stated, the sample was classified as negative.

[3] = tested on: Salmonella typhimurium strains TA98, TA100, TA1535 and TA1537; test: Ames microplate format (MPF) assay, overall verdict; conditions: 0.1, 0.2, 0.5 mM; four strains
Excerpt: as §1
The assay is a liquid microplate modification of the traditional Salmonella test. During the procedure, bacteria are exposed to different concentrations of a test compound for 90 min in a medium containing sufficient histidine to support cell divisions. […]
The test procedure provided by Xenometrix and described in detail elsewhere was followed. […] After the exposure, the number of wells containing bacteria was scored for yellow wells. […]
The fold increase of revertants relative to the solvent control was determined by dividing the mean number of positive wells at each dose by the solvent control at baseline. The solvent control at baseline was calculated as the mean number of positive wells in the solvent control plus one standard deviation (SD). […]

hippocampal kindled rats = test: Hippocampal kindled rat model; format: in vivo; conditions: for Results (protected/tested animals) / Seizure Duration ± SEM / Seizure Score ± SEM (Racine scale): i.p.
Description: The electrodes were implanted in brains one week prior to experiments. Then, rats were stimulated with suprathreshold stimuli of 200 µA for 10 sec at 50 Hz every 30 min for 6 h on alternate days until fully kindled. One week after reaching the fully kindled state, the effect of 23 and 27 mg/kg, i.p. of KM-568 in the groups of 5–6 rats were evaluated. The tests were performed at different time points (0–2.25 h) after compound administration. The results were scored as behavioral seizure score (according to Racine scale) and after discharge duration. The protection was noted if the seizure score was 3 or less.

Compound: C[C@H](O)CNC(=O)/C=C/c1ccccc1 [KM-568, S(+)-(2E)-N-(2-hydroxypropyl)-3-phenylprop-2-enamide]
- ED50 ([1]; Rattus norvegicus, ip): 58.6 mg/kg
- Results (protected/tested animals; protection = Racine score <3) ([1]; i.p., 20 mg/kg): 0/7
- Seizure Duration ± SD ([1]; i.p., 20 mg/kg): 140 ± 17.55 s
- Seizure Score ± SEM ([1]; i.p., 20 mg/kg): 5.0 ± 0.0
- Results (protected/tested animals; protection = Racine score <3) ([1]; i.p., 40 mg/kg): 2/7
- Seizure Duration ± SD ([1]; i.p., 40 mg/kg): 94.71 ± 8.72 s
- Seizure Score ± SEM ([1]; i.p., 40 mg/kg): 3.86 ± 0.74
- Results (protected/tested animals; protection = Racine score <3) ([1]; i.p., 80 mg/kg): 5/7
- Seizure Duration ± SD ([1]; i.p., 80 mg/kg): 56.57 ± 12.34 s
- Seizure Score ± SEM ([1]; i.p., 80 mg/kg): 2.86 ± 0.63
- ED50, lamotrigine-resistant amygdala kindled rat model ([1]; i.p.): 58.69 (38.09–120.15) mg/kg
- ED50 (rats; Rattus norvegicus, ip, 0.5 h, given at time 0.5 h): 297 mg/kg
- Results (protected/tested animals) (rats; i.p., 200 mg/kg, given at time 0 h): 8/8
- Results (protected/tested animals) (rats; i.p., 200 mg/kg, given at time 0.5 h): 1/8
- Results (protected/tested animals) (rats; i.p., 300 mg/kg, given at time 0.5 h): 5/8
- Results (protected/tested animals) (rats; i.p., 400 mg/kg, given at time 0.5 h): 7/8
- ED50, pilocarpine-induced status epilepticus (rats; i.p., given at time 0.5 h): 279.45 (212.61–344.62) mg/kg
- ED97, pilocarpine-induced status epilepticus (rats; i.p., given at time 0.5 h): 498.2 (378.3–1526.9) mg/kg
- fold induction at 90 min, 0.1 mM [2]: 0.7
- fold induction at 90 min, 0.2 mM [2]: 1.3
- fold induction at 90 min, 0.5 mM [2]: 1.1
- mutagenic activity in the Ames MPF assay [3]: did not exhibit mutagenic activity
- ED50 (hippocampal kindled rats; Rattus norvegicus, ip): 24.2 mg/kg
- Results (protected/tested animals) (hippocampal kindled rats; 23 mg/kg, 15 min): 2/6
- Seizure Duration ± SEM (hippocampal kindled rats; 23 mg/kg, 15 min): 55.67 ± 6.44 s
- Seizure Score ± SEM (Racine scale) (hippocampal kindled rats; 23 mg/kg, 15 min): 3.67 ± 0.84
- Seizure Duration ± SEM (hippocampal kindled rats; 23 mg/kg, 45 min): 65.83 ± 14.61 s
- Seizure Score ± SEM (Racine scale) (hippocampal kindled rats; 23 mg/kg, 45 min): 5.0 ± 0.0
- Seizure Duration ± SEM (hippocampal kindled rats; 23 mg/kg, 75 min): 56.67 ± 6.96 s
- Seizure Score ± SEM (Racine scale) (hippocampal kindled rats; 23 mg/kg, 75 min): 5.0 ± 0.0
- Seizure Duration ± SEM (hippocampal kindled rats; 23 mg/kg, 100 min): 57.83 ± 9.27 s
- Seizure Score ± SEM (Racine scale) (hippocampal kindled rats; 23 mg/kg, 100 min): 5.0 ± 0.0
- Seizure Duration ± SEM (hippocampal kindled rats; 23 mg/kg, 135 min): 55.17 ± 9.48 s
- Seizure Score ± SEM (Racine scale) (hippocampal kindled rats; 23 mg/kg, 135 min): 5.0 ± 0.0
- Results (protected/tested animals) (hippocampal kindled rats; 27 mg/kg, 15 min): 4/5
- Seizure Duration ± SEM (hippocampal kindled rats; 27 mg/kg, 15 min): 50.4 ± 3.08 s
- Seizure Score ± SEM (Racine scale) (hippocampal kindled rats; 27 mg/kg, 15 min): 1.8 ± 0.97
- Seizure Score ± SEM (Racine scale) (hippocampal kindled rats; 27 mg/kg, 45 min): 4.2 ± 0.80
- Seizure Duration ± SEM (hippocampal kindled rats; 27 mg/kg, 75 min): 70.6 ± 27.57 s
- Seizure Score ± SEM (Racine scale) (hippocampal kindled rats; 27 mg/kg, 75 min): 3.4 ± 0.98
- Seizure Duration ± SEM (hippocampal kindled rats; 27 mg/kg, 100 min): 62.5 ± 10.71 s
- Seizure Score ± SEM (Racine scale) (hippocampal kindled rats; 27 mg/kg, 100 min): 5.0 ± 0.0
- Seizure Duration ± SEM (hippocampal kindled rats; 27 mg/kg, 135 min): 95.0 ± 17.78 s
- Seizure Score ± SEM (Racine scale) (hippocampal kindled rats; 27 mg/kg, 135 min): 5.0 ± 0.0
